Results published in ChEMBL document CHEMBL3885881, “DrugMatrix”.

Organism: Rattus norvegicus
Assay: DrugMatrix - Regimen: Daily Repeat
Format: toxicity, organism-based, Sprague-Dawley
Parameters: regimen Daily Repeat, gender Male, age 6-8 weeks
Conditions: in vivo, po, route oral GAVAGE, vehicle .5 % CMC; for ABSOLUTE BASOPHIL / ABSOLUTE EOSINOPHIL / ABSOLUTE LYMPHOCYTE / ABSOLUTE MONOCYTE / ABSOLUTE SEGMENTED NEUTROPHIL / BASOPHIL / EOSINOPHIL / ERYTHROCYTE COUNT / HEMATOCRIT / HEMOGLOBIN / LEUKOCYTE COUNT / LYMPHOCYTE / MEAN CORPUSCULAR HEMOGLOBIN / MEAN CORPUSCULAR HEMOGLOBIN CONCENTRATION / MEAN CORPUSCULAR VOLUME / MONOCYTE / NEUTROPHIL / NUCLEATED RED BLOOD CELLS / PLATELET COUNT: tissue Blood; for ALANINE AMINOTRANSFERASE / ALBUMIN / ALKALINE PHOSPHATASE / ASPARTATE AMINOTRANSFERASE / BLOOD UREA NITROGEN / CARBON DIOXIDE / CHLORIDE / CHOLESTEROL / CREATINE PHOSPHOKINASE / CREATININE / GLUCOSE / LACTATE DEHYDROGENASE / LIPASE / PHOSPHORUS / POTASSIUM / SODIUM / TOTAL BILIRUBIN / TOTAL PROTEIN / URIC ACID: tissue Plasma
[1] = 0 mg/kg, 72 h, dose level Control, time 3 day
[2] = 0 mg/kg, 120 h, dose level Control, time 5 day
[3] = 3 mg/kg, 72 h, dose level Low, time 3 day

Compound: CC(=O)Nc1ccc2c(c1)Cc1ccccc1-2 [2-ACETYLAMINOFLUORENE]
- ABSOLUTE BASOPHIL [1]: 0 CELLS/uL
- ABSOLUTE EOSINOPHIL [1]: 171.33 CELLS/uL
- ABSOLUTE LYMPHOCYTE [1]: 13776.5 CELLS/uL
- ABSOLUTE MONOCYTE [1]: 180.83 CELLS/uL
- ABSOLUTE SEGMENTED NEUTROPHIL [1]: 1121.33 CELLS/uL
- BASOPHIL [1]: 0%
- EOSINOPHIL [1]: 1%
- ERYTHROCYTE COUNT [1]: 5.56 x10E6/uL
- HEMATOCRIT [1]: 34.75%
- HEMOGLOBIN [1]: 13.68 G/DL
- LEUKOCYTE COUNT [1]: 15.25 x10E3/uL
- LYMPHOCYTE [1]: 90.17%
- MEAN CORPUSCULAR HEMOGLOBIN [1]: 24.6 pg
- MEAN CORPUSCULAR HEMOGLOBIN CONCENTRATION [1]: 39.4 G/DL
- MEAN CORPUSCULAR VOLUME [1]: 62.48 fL
- MONOCYTE [1]: 1.17%
- NEUTROPHIL [1]: 7.67%
- NUCLEATED RED BLOOD CELLS [1]: 0 /100WBC
- PLATELET COUNT [1]: 1342 x10E3/uL
- ALANINE AMINOTRANSFERASE [1]: 49.67 u/L
- ALBUMIN [1]: 4.15 G/DL
- ALKALINE PHOSPHATASE [1]: 346.83 u/L
- ASPARTATE AMINOTRANSFERASE [1]: 108.17 u/L
- BLOOD UREA NITROGEN [1]: 17.33 mg/dL
- CARBON DIOXIDE [1]: 25 mmol/L
- CHLORIDE [1]: 100.83 MEQ/L
- CHOLESTEROL [1]: 66.83 mg/dL
- CREATINE PHOSPHOKINASE [1]: 788 u/L
- CREATININE [1]: 0.18 mg/dL
- GLUCOSE [1]: 151.67 mg/dL
- LACTATE DEHYDROGENASE [1]: 982.5 u/L
- LIPASE [1]: 10.33 u/L
- PHOSPHORUS [1]: 11.23 mg/dL
- POTASSIUM [1]: 6.37 MEQ/L
- SODIUM [1]: 141.02 MEQ/L
- TOTAL BILIRUBIN [1]: 0.18 mg/dL
- TOTAL PROTEIN [1]: 5.9 G/DL
- URIC ACID [1]: 1.8 mg/dL
- ABSOLUTE BASOPHIL [2]: 0 CELLS/uL
- ABSOLUTE EOSINOPHIL [2]: 69 CELLS/uL
- ABSOLUTE LYMPHOCYTE [2]: 13632.83 CELLS/uL
- ABSOLUTE MONOCYTE [2]: 139.83 CELLS/uL
- ABSOLUTE SEGMENTED NEUTROPHIL [2]: 1225 CELLS/uL
- BASOPHIL [2]: 0%
- EOSINOPHIL [2]: 0.33%
- ERYTHROCYTE COUNT [2]: 5.52 x10E6/uL
- HEMATOCRIT [2]: 33.98%
- HEMOGLOBIN [2]: 13.22 G/DL
- LEUKOCYTE COUNT [2]: 15.07 x10E3/uL
- LYMPHOCYTE [2]: 90.83%
- MEAN CORPUSCULAR HEMOGLOBIN [2]: 23.95 pg
- MEAN CORPUSCULAR HEMOGLOBIN CONCENTRATION [2]: 38.9 G/DL
- MEAN CORPUSCULAR VOLUME [2]: 61.53 fL
- MONOCYTE [2]: 0.83%
- NEUTROPHIL [2]: 8%
- NUCLEATED RED BLOOD CELLS [2]: 0 /100WBC
- PLATELET COUNT [2]: 1196 x10E3/uL
- ALANINE AMINOTRANSFERASE [2]: 49.17 u/L
- ALBUMIN [2]: 4.2 G/DL
- ALKALINE PHOSPHATASE [2]: 352.33 u/L
- ASPARTATE AMINOTRANSFERASE [2]: 89.67 u/L
- BLOOD UREA NITROGEN [2]: 18 mg/dL
- CARBON DIOXIDE [2]: 27.67 mmol/L
- CHLORIDE [2]: 101 MEQ/L
- CHOLESTEROL [2]: 72.83 mg/dL
- CREATINE PHOSPHOKINASE [2]: 417.5 u/L
- CREATININE [2]: 0.18 mg/dL
- GLUCOSE [2]: 150.5 mg/dL
- LACTATE DEHYDROGENASE [2]: 517.33 u/L
- LIPASE [2]: 9 u/L
- PHOSPHORUS [2]: 11.87 mg/dL
- POTASSIUM [2]: 6.57 MEQ/L
- SODIUM [2]: 143.62 MEQ/L
- TOTAL BILIRUBIN [2]: 0.2 mg/dL
- TOTAL PROTEIN [2]: 6.08 G/DL
- URIC ACID [2]: 1.45 mg/dL
- ABSOLUTE BASOPHIL [3]: 0 CELLS/uL
- ABSOLUTE EOSINOPHIL [3]: 75.33 CELLS/uL
- ABSOLUTE LYMPHOCYTE [3]: 11859.67 CELLS/uL
- ABSOLUTE MONOCYTE [3]: 186.67 CELLS/uL
- ABSOLUTE SEGMENTED NEUTROPHIL [3]: 911.67 CELLS/uL
- BASOPHIL [3]: 0%
- EOSINOPHIL [3]: 0.67%
- ERYTHROCYTE COUNT [3]: 5.43 x10E6/uL
- HEMATOCRIT [3]: 34.07%
- HEMOGLOBIN [3]: 13.33 G/DL
- LEUKOCYTE COUNT [3]: 13.03 x10E3/uL
- LYMPHOCYTE [3]: 91%
- MEAN CORPUSCULAR HEMOGLOBIN [3]: 24.57 pg
- MEAN CORPUSCULAR HEMOGLOBIN CONCENTRATION [3]: 39.2 G/DL
- MEAN CORPUSCULAR VOLUME [3]: 62.73 fL
- MONOCYTE [3]: 1.33%
- NEUTROPHIL [3]: 7%
- NUCLEATED RED BLOOD CELLS [3]: 0 /100WBC
- PLATELET COUNT [3]: 1354.67 x10E3/uL
- ALANINE AMINOTRANSFERASE [3]: 43.33 u/L
- ALBUMIN [3]: 4.2 G/DL
- ALKALINE PHOSPHATASE [3]: 360.33 u/L
- ASPARTATE AMINOTRANSFERASE [3]: 88.67 u/L
- BLOOD UREA NITROGEN [3]: 18.33 mg/dL
- CARBON DIOXIDE [3]: 26.33 mmol/L
- CHLORIDE [3]: 100.67 MEQ/L
- CHOLESTEROL [3]: 65 mg/dL
- CREATINE PHOSPHOKINASE [3]: 452 u/L
- CREATININE [3]: 0.23 mg/dL
- GLUCOSE [3]: 148.33 mg/dL
- LACTATE DEHYDROGENASE [3]: 641.33 u/L
- LIPASE [3]: 10.33 u/L
- PHOSPHORUS [3]: 11.33 mg/dL
- POTASSIUM [3]: 6.45 MEQ/L
- SODIUM [3]: 141.2 MEQ/L
- TOTAL BILIRUBIN [3]: 0.23 mg/dL
- TOTAL PROTEIN [3]: 5.9 G/DL
- URIC ACID [3]: 1.6 mg/dL
